For orientation: pIC50 means the negative decadic logarithm of the IC50, by convention in mol/L. In general, pKi refers to −log10 of the Ki, conventionally taken in molar units.

Experiment [1] addresses T1, Arginase-1 (Bos taurus, UniProt Q2KJ64).
T1 sequence (Q2KJ64 whole entry): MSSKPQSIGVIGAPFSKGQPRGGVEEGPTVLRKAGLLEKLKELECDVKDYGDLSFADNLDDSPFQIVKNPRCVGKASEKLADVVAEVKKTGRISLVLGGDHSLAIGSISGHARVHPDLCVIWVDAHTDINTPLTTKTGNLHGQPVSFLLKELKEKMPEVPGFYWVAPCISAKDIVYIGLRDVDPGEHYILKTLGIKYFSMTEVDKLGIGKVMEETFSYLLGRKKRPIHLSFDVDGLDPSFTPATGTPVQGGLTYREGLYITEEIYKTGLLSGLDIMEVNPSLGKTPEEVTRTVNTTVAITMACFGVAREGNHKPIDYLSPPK
In words: Inhibition of recombinant bovine liver ARGI using L-arginine as substrate incubated for 60 mins by spectroscopic analysis.

Experiment [2] addresses T2, Arginase-1 (Homo sapiens, UniProt P05089).
T2 sequence (P05089 whole entry): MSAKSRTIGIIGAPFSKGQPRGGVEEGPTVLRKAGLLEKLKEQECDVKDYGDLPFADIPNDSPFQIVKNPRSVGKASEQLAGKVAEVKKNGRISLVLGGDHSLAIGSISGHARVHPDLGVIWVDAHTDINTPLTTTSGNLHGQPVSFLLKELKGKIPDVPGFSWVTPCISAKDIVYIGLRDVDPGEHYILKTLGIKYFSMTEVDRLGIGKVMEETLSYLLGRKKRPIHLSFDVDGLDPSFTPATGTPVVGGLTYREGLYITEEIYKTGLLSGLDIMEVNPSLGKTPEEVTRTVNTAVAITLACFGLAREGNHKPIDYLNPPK
The experiment is described as follows: Inhibition of recombinant human ARG1 expressed in CHO-K1 cells assessed as reduction in urea level incubated for 24 hrs by colorimetric assay. The experiment is classed as cell-based.

Experiment [3] deals with T1, Arginase-1. The experiment is described as follows: Mixed type inhibition of recombinant bovine liver ARGI using L-arginine as substrate incubated for 60 mins by Dixon plot analysis.
Experiment [4] has as its target T2, Arginase-1. The experiment is described as follows: Inhibition of recombinant human liver ARGI using L-arginine as substrate incubated for 60 mins by spectroscopic analysis.
In experiment [5] the target is T1, Arginase-1. The experiment is described as follows: Mixed type inhibition of recombinant bovine liver ARGI using L-arginine as substrate incubated for 60 mins by Cornish-Bowden plot analysis.
Experiment [6] addresses T1, Arginase-1. In words: Mixed type inhibition of recombinant bovine liver ARGI using L-arginine as substrate incubated for 60 mins by Lineweaver-Burk plot analysis.

Each structure is given as a SMILES string. pIC50, pKi: −log10 of the molar value.

As to `NCCCNCc1ccc(O)c(O)c1`, the pIC50 on Arginase-1 [1] was 3.46.

As for `Oc1ccc(CNCc2ccc3c(c2)OCO3)cc1O`, the pIC50 on Arginase-1 [1] is 3.65.

Take `O=C(O)c1cc(NCc2ccc(O)c(O)c2)ccc1O`: at Arginase-1 [1], the pIC50 is 3.73.

As for `Oc1ccc(CNCc2cccc(Cl)c2)cc1O`, the pIC50 at Arginase-1 [1] was 3.48.

Regarding `CCOC(=O)C(NCc1ccc(O)c(O)c1)C(=O)OCC`, the pIC50 on Arginase-1 [1] was 3.44.

Consider `Nc1ccc(O)c(O)c1`, for which, at Arginase-1 [1], the pIC50 is 3.32.

`O=C(O)c1cc(O)cc(NCc2ccc(O)c(O)c2)c1`: the pIC50 on Arginase-1 [1] is 3.97.

In the case of `N=C(NO)NCC[C@H](N)C(=O)O` [NOR-NOHA], on Arginase-1 [1], the pIC50 is 5.57.

In the case of `O=C(O)/C=C/c1ccc(O)c(O)c1` [CAFFEIC ACID], the pIC50 at Arginase-1 [1] was 3.88.

Consider `COc1cccc(CNCc2ccc(O)c(O)c2)c1`, for which the pIC50 on Arginase-1 [1] was 3.52.

In the case of `Oc1ccc(O)c(O)c1`, the pIC50 on Arginase-1 [1] was 3.44.

On to `OCc1ccc(O)c(O)c1`, for which, on Arginase-1 [1], the pIC50 was 3.97.

For the molecule `NCc1ccc(O)c(O)c1`, the pIC50 on Arginase-1 [1] was 3.79.

Turning to `Oc1ccc(CNCc2ccccc2)cc1O`, the pIC50 at Arginase-1 [1] was 3.84.

Take `COc1ccc(NCc2ccc(O)c(O)c2)cc1`: at Arginase-1 [1], the negative logarithm of the IC50 (pIC50) was 3.81.

In the case of `COc1ccc(CNCc2ccc(O)c(O)c2)cc1`, the pIC50 on Arginase-1 [1] was 3.41.

`Oc1cccc(Br)c1O`: the pIC50 at Arginase-1 [1] was 3.56.

Turning to `COc1cccc(NCc2ccc(O)c(O)c2)c1`, the negative logarithm of the IC50 (pIC50) on Arginase-1 [1] was 3.73.

On to `N[C@@H](CCCCB(O)O)C(=O)O`, for which the pIC50 on Arginase-1 [2] is 4.77.

In the case of `Oc1ccc(CNCCc2c[nH]cn2)cc1O`, the pIC50 at Arginase-1 [1] was 3.50.

Turning to `Oc1ccc(NCc2ccc(O)c(O)c2)cc1`, the negative logarithm of the IC50 (pIC50) at Arginase-1 [1] was 3.62.

Take `Oc1ccccc1O` [CATECHOL]: the pIC50 on Arginase-1 [1] was 3.91.

On to `Oc1ccc(CNCc2cc(Cl)cc(Cl)c2)cc1O`, for which the negative logarithm of the IC50 (pIC50) at Arginase-1 [1] was 3.56.

Regarding `COC(=O)c1ccc(O)c(O)c1` [METHYL PROTOCATECHUATE], on Arginase-1 [1], the pIC50 was 3.55.

Take `Oc1ccc(CNc2ccc(O)c(O)c2)cc1O`: the pKi at Arginase-1 [3], at Arginase-1 [5] and at Arginase-1 [6] was 4.09 throughout. The pIC50 was 3.10 on Arginase-1 [2], 4.05 on Arginase-1 [4] and 4.12 at Arginase-1 [1].

Take `Oc1ccc(CNCCc2ccccc2)cc1O`: the pIC50 on Arginase-1 [1] was 3.44.

Take `Oc1ccc(CNc2ccccc2)cc1O`: at Arginase-1 [1], the pIC50 is 3.79.

Regarding `Oc1ccc(CNCCN2CCOCC2)cc1O`, on Arginase-1 [1], the pIC50 is 3.33.

As to `Oc1cccc(NCc2ccc(O)c(O)c2)c1`, on Arginase-1 [1], the negative logarithm of the IC50 (pIC50) was 4.08.

Take `Oc1cc(O)cc(/C=C/c2ccc(O)c(O)c2)c1` [PICEATANNOL]: the negative-log Ki (pKi) at Arginase-1 [3], at Arginase-1 [5] and at Arginase-1 [6] was 3.87 in each case. Also, the figures for the pIC50 at Arginase-1 [2], on Arginase-1 [4] and at Arginase-1 [1] were 2.93, 4.16 and 4.33, respectively.

In the case of `Oc1cc(O)cc(NCc2ccc(O)c(O)c2)c1`, at Arginase-1 [1], the pIC50 was 3.85.

As to `NCCc1ccc(O)c(O)c1` [DOPAMINE], the pIC50 on Arginase-1 [1] was 3.89.
